Where two headings read alike, the source gives them in different places.
Assays:
[1] = DCM
[2] = DCM; remark: listed apart in the source
[3] = test system: B6.Cg-Tg(HCRT-MJD)1Stak/J (Atax) mouse model of NT1; test: Wake-promoting efficacy of oral small molecules, piezoelectric sleep/wake monitoring, Atax mice; type: in vivo; conditions: dosed 5 h after light onset
Description: (§1) Wake-promoting efficacy of oral small molecules. Wake-promoting efficacy was evaluated in the […]) mouse model of NT1 and wild type (WT) colony mates. Mice were monitored in home cages using piezoelectric sensors for rapid, non-invasive classification of sleep and wakefulness by unsupervised machine learning on physiologically relevant readouts, such as body movement and breath rate. Piezoelectric detection is highly correlated with conventional time-intensive electroencephalogram/electromyography measures of sleep/wake states in both WT and NT1 mice. In a counterbalanced, repeated-measures design, mice were orally dosed at 5 h after light onset with test articles and vehicle.

[4] = test system: wild type (WT) colony mates; test: Wake-promoting efficacy of oral small molecules, piezoelectric sleep/wake monitoring, WT mice; type: in vivo, mouse; conditions: dosed 5 h after light onset
Description: as §1

[5] = molecular target: T1, human orexin type 2 receptor (hOX2R) (Homo sapiens, UniProt O43614); test: Orexin type 2 receptor agonist activity, intracellular Ca2+ (FLIPR TETRA) in CHO cells; type: cell-based; conditions: CHO cells expressing hOX2R; Ca2+ fluorescence area; 100% = 10 nM human orexin A; read-out: hOx2 pEC50 (converted)
T1 construct: the Orexin receptor cDNA was inserted into pcDNA3.1(+) plasmid vector; expressed in transfected cells
T1 sequence (O43614 1-444): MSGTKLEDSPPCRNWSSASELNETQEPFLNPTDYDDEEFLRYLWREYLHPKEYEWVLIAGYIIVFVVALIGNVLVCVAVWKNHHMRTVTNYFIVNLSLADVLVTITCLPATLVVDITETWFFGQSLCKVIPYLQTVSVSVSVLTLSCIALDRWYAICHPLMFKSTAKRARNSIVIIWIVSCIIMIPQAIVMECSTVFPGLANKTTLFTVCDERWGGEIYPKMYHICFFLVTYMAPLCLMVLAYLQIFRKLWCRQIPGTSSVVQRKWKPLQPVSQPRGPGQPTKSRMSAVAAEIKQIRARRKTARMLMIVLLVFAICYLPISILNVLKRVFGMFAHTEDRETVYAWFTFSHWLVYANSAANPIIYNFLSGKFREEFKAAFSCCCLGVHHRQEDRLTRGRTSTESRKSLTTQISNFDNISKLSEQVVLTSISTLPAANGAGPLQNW
Description: Stable cell line generation. Obtainment of cells stably expressing either human orexin type 2 or human orexin type 1 receptor: to obtain a stable cell line the Orexin receptor cDNA was inserted into pcDNA3.1(+) plasmid vector and clones identified by G418 drug resistance selection. […] A single clone for OX2R—CHO and OX1R—CHO were grown in bulk and frozen to generate a cell bank for routine screening.
Measurement of orexin type 2 receptor agonist activity. Chinese hamster ovary (CHO) cells expressing human orexin type 2 receptor (hOX2R) or human orexin type 1 receptor (hOX1R) were seeded in each well of 384 well black clear bottom plates (BD Flacon) at 10,000 cells per well and cultured for 24 hr in an Ham's F12 (Gibco) medium containing 10% fetal calf serum (Sigma Aldrich) under the conditions of 37° C., 5% CO2. After removal of the medium, 50 μl of assay buffer 1 (0.1% bovine serum albumin (Sigma Aldrich), 20 mM HEPES (Molecular Dimensions), […] probenecid (Sigma Aldrich), 1× Calcium 5 dye (Molecular Devices) in Hank's balanced salt solution (Invitrogen)) was added, and the cells were incubated for 60 min under the conditions of 37° C., 5% CO2. A test compound was dissolved in dimethyl sulfoxide (Sigma Aldrich) to 10 mM, and then diluted with assay buffer 2 (20 mM HEPES, Hank's balanced salt solution, 0.1% bovine serum albumin). For the reaction, a test compound solution (10 μl) was added using Fluorescent Imaging Plate Reader TETRA (FLIPR TETRA: manufactured by Molecular Devices), a fluorescence value (excitation wavelength 488 nm, measurement wavelength 570 nm) of each well was measured every one second for 2 min, and the agonist activity was determined using the area of the fluorescence value as an indicator of intracellular Ca^2+ concentration. The agonist activity of the test compound was calculated assuming that the fluorescence value of the well added with only the dilution buffer was 0% and the fluorescence value of the well added with 10 nM human orexin A (Tocris) buffer was 100%.
Values of hOx2 pEC50 in Table B are presented in ranges, in which 6.0≤“+”<7.0, 7.0≤“++”<8.0, 8.0≤“+++”<9.0, and 9.0≤“++++”<10.4.

OX2R = molecular target: T2, OX2R (Mus musculus, UniProt P58308); conditions: cited from earlier work
T2 construct: host or cells: mice (WT, orexin-deficient and NT1 models), endogenous receptor in brain
T2 sequence (P58308 1-460): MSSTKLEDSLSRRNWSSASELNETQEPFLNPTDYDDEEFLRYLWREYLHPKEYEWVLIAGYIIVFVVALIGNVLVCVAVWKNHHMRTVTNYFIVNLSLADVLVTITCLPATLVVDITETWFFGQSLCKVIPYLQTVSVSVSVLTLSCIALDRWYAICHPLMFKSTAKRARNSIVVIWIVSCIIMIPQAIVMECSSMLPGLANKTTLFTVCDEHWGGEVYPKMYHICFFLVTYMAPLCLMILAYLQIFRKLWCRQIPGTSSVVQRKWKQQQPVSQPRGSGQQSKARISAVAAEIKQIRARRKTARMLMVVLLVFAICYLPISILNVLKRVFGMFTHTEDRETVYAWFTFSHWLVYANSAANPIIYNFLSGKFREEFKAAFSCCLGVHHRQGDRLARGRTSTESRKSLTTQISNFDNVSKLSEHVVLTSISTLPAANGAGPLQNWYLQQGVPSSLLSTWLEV

EC50 [5] [nM]	Compound	Wake % time 1 h post dose (increase from vehicle) ([3]; oral dose 1 mg/kg) [%]	Wake % time 1 h post dose (increase from vehicle) ([3]; oral dose 3 mg/kg) [%]	Wake % time 1 h post dose (increase from vehicle) ([4]; oral dose 10 mg/kg) [%]	further results
–	CNCCOc1ccccc1-c1cccc(C[C@@H]2NCC3(CC3)[C@@H]2NS(=O)(=O)C(F)F)c1F	–	–	–	ring closure, yield after HPLC ([1]; the molecule shown is the open-chain precursor, other bond, 13-membered ring, triphosgene/TEA, then K2CO3, then MeCN, 0.2 mM, 60.0 °C): 16%
–	O=C1CCCN2C(=O)CCOc3ccccc3-c3cccc(c3)CC12 (stereo not shown)	–	–	–	ring closure, isolated yield ([2]; from O=C(O)CCOc1ccccc1-c1cccc(CC2NCCCC2=O)c1, amide bond, 12-membered ring, DMC (2-chloro-1,3-dimethylimidazolinium chloride)/DIEA, 2.56 mM, 25.0 °C, 12.0 h): 52%
–	O=C1CCCN2C(=O)CCOc3ccccc3-c3cccc(c3F)CC12 (stereo not shown)	–	–	–	ring closure, isolated yield ([2]; from O=C(O)CCOc1ccccc1-c1cccc(CC2NCCCC2=O)c1F, amide bond, 12-membered ring, DMC (2-chloro-1,3-dimethylimidazolinium chloride)/DIEA, 2.7 mM, 25.0 °C, 12.0 h): 53%
–	1,1-difluoro-N-((4^2S,4^3R)-1^3,4^4,4^4-trifluoro-6-methyl-5-oxo-9-oxa-6-aza-4 (2,1)-pyrrolidina-1 (1,2),2 (1,3)-dibenzenacyclononaphane-4^3-yl) methanesulfonamide_cis racemic	–	–	–	ring closure, isolated yield ([2]; other bond, 13-membered ring, triphosgene/TEA, then K2CO3, then MeCN, 0.4 mM, 20.0 °C): 28.5%
0.0398 to 1	O=C1CCOc2c(F)cc(F)cc2-c2cccc(c2F)C[C@H]2[C@@H](NS(=O)(=O)CF)[C@@H](F)CCN12 [Example 41, 1-fluoro-N-((4^2S,4^3R,4^4S)-1^3,1^5,2^2,4^4-tetrafluoro-5-oxo-8-oxa-4 (2,1)-piperidina-1 (1,2),2 (1,3)-dibenzenacyclooctaphane-4^3-yl)methanesulfonamide]	32.4	38.2	28.0	Wake % time 1 h post dose (increase from vehicle) ([4]; oral dose 30 mg/kg): 31.5%
0.0398 to 1	O=C1CCOc2c(F)cccc2-c2cccc(c2F)C[C@H]2[C@@H](NS(=O)(=O)CF)[C@@H](F)CCN12 [Example 42, 1-fluoro-N-((4^2S,4^3R,4^4S)-1^3,2^2,4^4-trifluoro-5-oxo-8-oxa-4 (2,1)-piperidina-1 (1,2),2 (1,3)-dibenzenacyclooctaphane-4^3-yl)methanesulfonamide]	33.7	34.2	22.8	Wake % time 1 h post dose (increase from vehicle) ([4]; oral dose 3 mg/kg): 17.1%; Wake % time 1 h post dose (increase from vehicle) ([4]; oral dose 30 mg/kg): 37.7%
0.0398 to 1	O=C1CCOc2c(F)cc(F)cc2-c2cccc(c2F)C[C@H]2[C@@H](NS(=O)(=O)C3(F)CC3)[C@@H](F)CCN12 [Example 43, 1-fluoro-N-((4^2S,4^3R,4^4S)-1^3,1^5,2^2,4^4-tetrafluoro-5-oxo-8-oxa-4 (2,1)-piperidina-1 (1,2),2 (1,3)-dibenzenacyclooctaphane-4^3-yl)cyclopropane-1-sulfonamide]	–	–	–	ring closure, yield after HPLC ([1]; from O=C(O)CCOc1c(F)cc(F)cc1-c1cccc(C[C@@H]2NCC[C@H](F)[C@@H]2NS(=O)(=O)C2(F)CC2)c1F, amide bond, 12-membered ring, DMC (2-chloro-1,3-dimethylimidazolinium chloride)/DIEA, 0.148 mM, 20.0 °C, 4.0 h): 77%
0.0398 to 1	O=C1CCOc2c(F)cccc2-c2cccc(c2F)C[C@H]2[C@@H](NS(=O)(=O)C3(F)CC3)[C@@H](F)CCN12 [Example 44, 1-fluoro-N-((4^2S,4^3R,4^4S)-1^3,2^2,4^4-trifluoro-5-oxo-8-oxa-4 (2,1)-piperidina-1 (1,2),2 (1,3)-dibenzenacyclooctaphane-4^3-yl)cyclopropane-1-sulfonamide]	–	–	–	ring closure, yield after HPLC ([1]; from O=C(O)CCOc1c(F)cccc1-c1cccc(C[C@@H]2NCC[C@H](F)[C@@H]2NS(=O)(=O)C2(F)CC2)c1F, amide bond, 12-membered ring, DMC (2-chloro-1,3-dimethylimidazolinium chloride)/DIEA, 0.165 mM, 25.0 °C, 4.0 h): 42%
0.0398 to 1	O=C1CCOc2c(F)cc(F)cc2-c2cccc(c2F)C[C@H]2[C@@H](NS(=O)(=O)C3(F)CC3)CCCN12 [Example 47, 1-fluoro-N-((4^2S,4^3S)-1^3,1^5,2^2-trifluoro-5-oxo-8-oxa-4 (2,1)-piperidina-1 (1,2),2 (1,3)-dibenzenacyclooctaphane-4^3-yl)cyclopropane-1-sulfonamide]	41.8	40.4	39.0	Wake % time 1 h post dose (increase from vehicle) ([3]; oral dose 0.3 mg/kg): 41.3%; Wake % time 1 h post dose (increase from vehicle) ([4]; oral dose 1 mg/kg): 20.7%; Wake % time 1 h post dose (increase from vehicle) ([4]; oral dose 3 mg/kg): 37.6%; ring closure, isolated yield ([2]; from O=C(O)CCOc1c(F)cc(F)cc1-c1cccc(C[C@@H]2NCCC[C@@H]2NS(=O)(=O)C2(F)CC2)c1F, amide bond, 12-membered ring, DMC (2-chloro-1,3-dimethylimidazolinium chloride)/DIEA, 1.56 mM, 25.0 °C, 1.0 h): 44%
0.0398 to 1	O=C1CCOc2c(F)cccc2-c2cccc(c2F)C[C@H]2[C@@H](NS(=O)(=O)C3(F)CC3)CCCN12 [Example 48, N-((4^2S,4^3S)-13,22-difluoro-5-oxo-8-oxa-4 (2,1)-piperidina-1 (1,2),2 (1,3)-dibenzenacyclooctaphane-4^3-yl)-1-fluorocyclopropane-1-sulfonamide]	40.5	48.0	34.8	Wake % time 1 h post dose (increase from vehicle) ([3]; oral dose 0.3 mg/kg): 44.4%; Wake % time 1 h post dose (increase from vehicle) ([4]; oral dose 3 mg/kg): 18.6%
0.0398 to 1	O=C1CCOc2c(F)cccc2-c2cccc(c2)C[C@H]2[C@@H](NS(=O)(=O)C3(F)CC3)CCCN12 [Example 49, 1-fluoro-N-((4^2S,4^3S)-1^3-fluoro-5-oxo-8-oxa-4 (2,1)-piperidina-1 (1,2),2 (1,3)-dibenzenacyclooctaphane-4^3-yl)cyclopropane-1-sulfonamide]	–	–	–	ring closure, yield after HPLC ([1]; from O=C(O)CCOc1c(F)cccc1-c1cccc(C[C@@H]2NCCC[C@@H]2NS(=O)(=O)C2(F)CC2)c1, amide bond, 12-membered ring, DMC (2-chloro-1,3-dimethylimidazolinium chloride)/DIEA, 1.84 mM, 20.0 °C, 4.0 h): 71%
–	COc1ccc(-c2cccc(C(=O)N(C)C)c2)cc1S(=O)(=O)Nc1cccc(NCCNC(=O)c2ccccc2N(C)C)c1 [YNT-185]	–	–	–	sleep-onset REM periods and cataplexy-like events (OX2R; NT1 mouse model): decrease sleep-onset REM periods and cataplexy-like events; wakefulness (OX2R; intraperitoneally or ICV, wild type (WT) and orexin ligand-deficient mice): modestly increases wakefulness

Source: patent US20250236629A1, “MEDIUM- OR MACRO-CYCLIC BENZYL-SUBSTITUTED HETEROCYCLE DERIVATIVES AND RELATED USES” (CENTESSA PHARMACEUTICALS (UK) LIMITED, priority 2022, published 2025)
